Experimental data taken from PMC10615251 (Biochemistry, 2023).

Experiments:
[1] = tested on: T1, UDP-α-D-glucose 6-dehydrogenase (HS:15.18); settings: read-out: KNAD (apparent); 1.0 mM UDP-D-glucose, 50 mM triethanolamine pH 8.7, 25 °C
T1 construct: gene HS15.18

[2] = tested on: T2, UDP-α-D-glucuronate 6-decarboxylase (HS:15.19); test: anion exchange chromatography of UDP-xylose formed, […] nm; format: biochemical, Campylobacter jejuni; settings: 50 mM phosphate pH 6.5
T2 construct: gene HS15.19

[3] = tested on: T3, UDP-α-D-xylose 4-epimerase (HS:15.17); settings: read-out: KUDP-xyl (apparent); 50 mM HEPES/KOH pH 8.0, 25 °C
T3 construct: gene HS15.17

## NC(=O)c1ccc[n+]([C@@H]2O[C@H](COP(=O)(O)OP(=O)(O)OC[C@H]3O[C@@H](n4cnc5c(N)ncnc54)[C@H](O)[C@@H]3O)[C@@H](O)[C@H]2O)c1 [NAD^+]
[1]
  Km: 120 ± 10 µM
[2]; 2.5 mM UDP-D-glucuronate
  Ka (activation constant, concentration at 1⁄2 saturation): 17 ± 5 µM

## O=c1ccn([C@@H]2O[C@H](COP(=O)(O)OP(=O)(O)O[C@H]3OC[C@@H](O)[C@H](O)[C@H]3O)[C@@H](O)[C@H]2O)c(=O)[nH]1 [compound 5, UDP-α-D-xylose]
[3]
  Km: 125 ± 13 µM

## O=C(O)[C@H]1O[C@H](OP(=O)(O)OP(=O)(O)OC[C@H]2O[C@@H](n3ccc(=O)[nH]c3=O)[C@H](O)[C@@H]2O)[C@H](O)[C@@H](O)[C@@H]1O [compound 4, UDP-α-D-glucuronate]
[2]; read-out: KUDP-glc (apparent), 0.30 mM NAD+
  Km: 250 ± 30 µM
